These are literature values, as cited in patent US20250375396A1 (priority 2016, published 2025).

Where a name gives a salt, the structure may show the parent alone.

The pKa is the pH at which an ionisable group is half protonated.

Details in one data set: not given
With `O=C([O-])[O-].[Na+].[Na+]` [Sodium carbonate], the pKa is 10.3.

The same data set, now with this note: conjugated acid amine.
In the case of `CCCN(CCc1cccs1)[C@H]1CCc2c(O)cccc2C1` [Rotigotine HCl], the “Equilibrium Constant of Acid Amine (pKa(acid amine))” value (from here on “Equilibrium Constant of Acid Amine”) was 7.90.

`CCCN(CCC)CCc1cccc2c1CC(=O)N2` [Ropinirole HCl]: the “Equilibrium Constant of Acid Amine” value is on record as 9.68.

Consider `COC(=O)C(c1ccccc1)C1CCCCN1` (stereo not drawn) [Methyl phenidate HCl], for which the “Equilibrium Constant of Acid Amine” value is 8.77.

As for `CCN(C)C(=O)Oc1cccc([C@H](C)N(C)C)c1` [Rivastigmine HCl], the “Equilibrium Constant of Acid Amine” value was 8.85.

`CCOc1ccccc1OCCN[C@H](C)Cc1ccc(OC)c(S(N)(=O)=O)c1` [Tamsulosin HCl]: the “Equilibrium Constant of Acid Amine” value is 8.37.
